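A five-concentration, 48-hour dose response in 96-well plates underlies each endpoint, interpolated linearly between surrounding concentrations. GI50 marks 50% less growth.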 Activity calls are given as the source filed them. Cut-off read from the data, not from the text of the source: active = GI50 up to about 1.1 µM and inactive = higher.
Tests used:
Experiment in all cases: NCI anticancer screen, dose series, 48 h
A549 = tested on: A549
CAKI-1 = tested on: CAKI-1
EKVX = tested on: EKVX
HCT-116 = tested on: HCT-116
HT-29 = tested on: HT-29
Hs-578T = tested on: Hs-578T
K562 = tested on: K562
LOX IMVI = tested on: LOX IMVI
NCI/ADR-RES = tested on: NCI/ADR-RES
OVCAR-8 = tested on: OVCAR-8
SF-268 = tested on: SF-268
SF-295 = tested on: SF-295
SF-539 = tested on: SF-539
SK-MEL-2 = tested on: SK-MEL-2
SN12C = tested on: SN12C
SNB-75 = tested on: SNB-75
SR = tested on: SR
U-251 = tested on: U-251
UACC-257 = tested on: UACC-257
UACC-62 = tested on: UACC-62

Measured: GI50

CCCNC(=O)Cn1c(-c2ccccc2)cc2ccccc21
inactive: A549 67.1 µM | CAKI-1 52 µM | EKVX 30.6 µM | HCT-116 24.2 µM | HT-29 93.8 µM | Hs-578T 31.8 µM | K562 > 100 µM | LOX IMVI > 100 µM | NCI/ADR-RES 42.4 µM | OVCAR-8 > 100 µM | SF-268 92 µM | SF-295 88.7 µM | SF-539 > 100 µM | SK-MEL-2 69.8 µM | SN12C > 100 µM | SNB-75 25.9 µM | SR > 100 µM | U-251 > 100 µM | UACC-257 > 100 µM | UACC-62 26.4 µM

CC(=O)N1C(OCc2ccccc2)CCN1c1ccccc1 (centres undefined)
inactive: A549 > 10 µM | CAKI-1 > 10 µM | HCT-116 > 10 µM | HT-29 > 10 µM | Hs-578T > 10 µM | K562 > 10 µM | LOX IMVI > 10 µM | NCI/ADR-RES > 10 µM | OVCAR-8 > 10 µM | SF-268 > 10 µM | SF-295 > 10 µM | SF-539 > 10 µM | SK-MEL-2 > 10 µM | SN12C > 10 µM | SNB-75 > 10 µM | SR > 10 µM | UACC-257 > 10 µM

COC(=O)CCc1ccc2c(c1)C(=O)CC2
inactive: A549 > 100 µM | EKVX > 100 µM | HCT-116 > 100 µM | HT-29 > 100 µM | Hs-578T > 100 µM | K562 > 100 µM | LOX IMVI > 100 µM | NCI/ADR-RES > 100 µM | OVCAR-8 > 100 µM | SF-268 > 100 µM | SF-295 > 100 µM | SF-539 > 100 µM | SK-MEL-2 > 100 µM | SNB-75 29.7 µM | SR > 100 µM | U-251 > 100 µM | UACC-257 > 100 µM

[O-][S+](CC1(O)CCCCC1)c1ccccc1 (centres undefined)
inactive: A549 > 100 µM | CAKI-1 > 100 µM | EKVX > 100 µM | HCT-116 > 100 µM | HT-29 > 100 µM | Hs-578T > 100 µM | K562 > 100 µM | LOX IMVI > 100 µM | NCI/ADR-RES > 100 µM | OVCAR-8 > 100 µM | SF-268 > 100 µM | SF-295 > 100 µM | SK-MEL-2 > 100 µM | SN12C > 100 µM | SNB-75 > 100 µM | SR > 100 µM | U-251 > 100 µM | UACC-257 > 100 µM | UACC-62 > 100 µM

CC(=O)OCC1OC(Nc2ccc3nc(C)n(-c4cccc(C)c4)c(=O)c3c2)C(OC(C)=O)C(OC(C)=O)C1OC(C)=O (centres undefined)
inactive: CAKI-1 > 62.5 µM | EKVX > 62.5 µM | HCT-116 > 62.5 µM | HT-29 > 62.5 µM | Hs-578T > 62.5 µM | K562 > 62.5 µM | LOX IMVI > 62.5 µM | NCI/ADR-RES > 62.5 µM | OVCAR-8 > 62.5 µM | SF-268 > 62.5 µM | SF-295 > 62.5 µM | SK-MEL-2 > 62.5 µM | SN12C > 62.5 µM | SNB-75 > 62.5 µM | SR > 62.5 µM | U-251 > 62.5 µM | UACC-257 > 62.5 µM | UACC-62 > 62.5 µM

Cc1ccc2nc(-c3nccn3C)cc(C(=O)NC(C)CN(C)C)c2c1 (centres undefined)
active: SR 0.711 µM
inactive: A549 89.9 µM | CAKI-1 > 100 µM | EKVX > 100 µM | HCT-116 > 100 µM | HT-29 72.6 µM | Hs-578T > 100 µM | LOX IMVI 91.2 µM | NCI/ADR-RES > 100 µM | OVCAR-8 > 100 µM | SF-268 > 100 µM | SF-539 26.1 µM | SK-MEL-2 > 100 µM | SN12C > 100 µM | SNB-75 > 100 µM | U-251 > 100 µM | UACC-257 > 100 µM | UACC-62 > 100 µM

COc1ccc(NC2=NCCO2)c2c1CCCC2
inactive: A549 40.7 µM | CAKI-1 54.1 µM | EKVX 47.8 µM | HCT-116 28.8 µM | HT-29 46.8 µM | Hs-578T 25.9 µM | K562 28.3 µM | LOX IMVI 29.1 µM | NCI/ADR-RES 27.6 µM | OVCAR-8 36.7 µM | SF-295 27.3 µM | SF-539 33.2 µM | SK-MEL-2 18.8 µM | SNB-75 27.3 µM | SR 29.2 µM | U-251 25.8 µM | UACC-257 26.3 µM | UACC-62 24.4 µM

C=CCOc1ccc(C(=N/NC(=O)c2ccccc2)/N=N/c2ccc([N+](=O)[O-])cc2)cc1OC
inactive: A549 > 100 µM | CAKI-1 > 100 µM | EKVX > 100 µM | HCT-116 58.6 µM | HT-29 > 100 µM | Hs-578T > 100 µM | LOX IMVI 82.6 µM | NCI/ADR-RES > 100 µM | OVCAR-8 > 100 µM | SF-268 > 100 µM | SF-295 > 100 µM | SF-539 > 100 µM | SK-MEL-2 > 100 µM | SN12C > 100 µM | SNB-75 > 100 µM | SR > 100 µM | U-251 > 100 µM | UACC-257 > 100 µM | UACC-62 > 100 µM

CC1C(c2ccccc2)NC(c2ccccc2)CC1(N)C#N (centres undefined)
inactive: A549 > 100 µM | CAKI-1 > 100 µM | EKVX > 100 µM | HCT-116 > 100 µM | HT-29 63.1 µM | Hs-578T > 100 µM | K562 > 100 µM | LOX IMVI > 100 µM | NCI/ADR-RES > 100 µM | OVCAR-8 > 100 µM | SF-268 > 100 µM | SF-295 > 100 µM | SF-539 > 100 µM | SN12C > 100 µM | SNB-75 > 100 µM | SR > 100 µM | U-251 > 100 µM | UACC-257 48 µM | UACC-62 90.6 µM

Cc1ccc(S(=O)(=O)N(CC(O)COc2ccccc2)c2c(F)cccc2F)cc1 (centres undefined)
inactive: A549 17.3 µM | CAKI-1 14.3 µM | EKVX 23.3 µM | HT-29 17.4 µM | Hs-578T 20 µM | K562 37.3 µM | LOX IMVI 15.2 µM | NCI/ADR-RES 17.5 µM | OVCAR-8 17 µM | SF-268 17.1 µM | SF-295 29.2 µM | SF-539 16.9 µM | SK-MEL-2 16.6 µM | SN12C 21.1 µM | SNB-75 18.9 µM | SR 21.8 µM | U-251 15.7 µM | UACC-257 21.8 µM | UACC-62 14.8 µM

COc1ccc(-c2[nH]c(-c3ccc(OC)cc3)c(-c3ccccn3)c2-c2ccccn2)cc1
inactive: A549 40.8 µM | CAKI-1 > 100 µM | EKVX 72.3 µM | HCT-116 > 100 µM | HT-29 21.6 µM | Hs-578T > 100 µM | K562 25.5 µM | LOX IMVI 24 µM | NCI/ADR-RES 39.5 µM | OVCAR-8 50 µM | SF-268 > 100 µM | SF-295 38.2 µM | SF-539 63.1 µM | SN12C 52.2 µM | SNB-75 31.2 µM | SR 34.6 µM | U-251 43.8 µM | UACC-257 40.2 µM | UACC-62 34.3 µM

CC1(C)CC[C@]2(C(=O)O)CC[C@]3(C)C(=CC[C@@H]4[C@@]5(C)CC[C@H](OC6OC(CO)C(O)C(O)C6O)C(C)(C)[C@@H]5CC[C@]43C)[C@@H]2C1 (some centres undefined)
inactive: A549 1.68 µM | CAKI-1 2.3 µM | EKVX 1.93 µM | HCT-116 1.69 µM | HT-29 1.62 µM | Hs-578T 2.26 µM | K562 1.42 µM | LOX IMVI 1.66 µM | NCI/ADR-RES 7.89 µM | OVCAR-8 1.75 µM | SF-268 1.83 µM | SF-295 1.78 µM | SK-MEL-2 1.71 µM | SN12C 1.7 µM | SNB-75 2.12 µM | SR 2.34 µM | U-251 1.68 µM | UACC-257 1.69 µM | UACC-62 1.82 µM

Cc1cc(N(CCC#N)CCC#N)ccc1C(/N=N/c1ccccc1)=N\NC(=O)c1ccccc1
inactive: A549 38.8 µM | CAKI-1 28.2 µM | EKVX 39.4 µM | HCT-116 20.6 µM | HT-29 16.8 µM | Hs-578T 31.5 µM | K562 9.84 µM | NCI/ADR-RES 20.2 µM | OVCAR-8 24.3 µM | SF-268 42.8 µM | SF-295 11.6 µM | SF-539 17.4 µM | SK-MEL-2 77.1 µM | SN12C 43.9 µM | SNB-75 48.6 µM | SR 6.81 µM | U-251 35.7 µM | UACC-257 38.5 µM | UACC-62 2.77 µM

Cc1ccc(-c2cc[n+]3c(n2)oc2ccccc23)cc1
inactive: A549 53.3 µM | CAKI-1 41.5 µM | EKVX 26.4 µM | HCT-116 29.8 µM | Hs-578T 27.8 µM | K562 4.84 µM | LOX IMVI 35.7 µM | NCI/ADR-RES > 100 µM | OVCAR-8 21.2 µM | SF-268 43.9 µM | SF-295 26.7 µM | SF-539 25.1 µM | SK-MEL-2 22.8 µM | SN12C > 100 µM | SNB-75 25 µM | SR 11 µM | U-251 36.7 µM | UACC-257 18.8 µM | UACC-62 24.2 µM

C[C@]12O[C@@]3(C)O[C@@]3(C)[C@]3(C)O[C@]3(C)[C@@]1(C)O2
active: SNB-75 0.598 µM
inactive: A549 > 100 µM | CAKI-1 > 100 µM | EKVX > 100 µM | HCT-116 > 100 µM | HT-29 > 100 µM | Hs-578T > 100 µM | K562 > 100 µM | LOX IMVI > 100 µM | NCI/ADR-RES > 100 µM | OVCAR-8 > 100 µM | SF-268 > 100 µM | SF-295 > 100 µM | SK-MEL-2 > 100 µM | SN12C > 100 µM | SR > 100 µM | U-251 > 100 µM | UACC-257 > 100 µM | UACC-62 > 100 µM
